The results in this text go back to PMC9369442, “Synthetic Peucedanocoumarin IV Prevents α-Synuclein Neurotoxicity in an Animal Model of Parkinson’s Disease” (International Journal of Molecular Sciences, 2022).

Data set [1] has as its target T1, recombinant α-synuclein (Homo sapiens, UniProt P37840).
T1 construct: made in house; host or cells: Escherichia coli BL21
Briefly: In vitro recombinant α-synuclein aggregation, Western blot. Format: biochemical. Conditions: 100 μM, 37 °C, 3 or 5 days. Here is the method: Figure 2 PCiv prevents α-synuclein aggregation in vitro and in cultured neurons with PFF treatment. (A) Representative Western blots showing the degree of recombinant α-synuclein (αSyn) aggregation in a test tube in the presence or absence of PCiv (100 μM) at the indicated incubation duration (phosphate-buffered saline [PBS], 37 °C for 3 or 5 days). Aggregation of α-synuclein was determined using α-synuclein antibody. (B) Quantification of the relative amount of α-synuclein aggregate in high molecular weight sizes in panel A (n = 3 per group). […] (D) Quantification of pS129-αSyn immunofluorescence signal intensities in MAP2-positive cortical neurons in each experimental group (n = 15 cells from three separate experiments). (E) Cell viability assessment in the indicated experimental groups was monitored by CCK-8 assay (n = 3 per group). The data are expressed as means ± SEMs. * p < 0.05, ** p < 0.01, *** p < 0.001, and **** p < 0.0001, ANOVA test followed by Tukey’s post hoc analysis. […]
(A) Representative Western blots showing the degree of recombinant α-synuclein (αSyn) aggregation in a test tube in the presence or absence of t-Khellatone, PCiii, and PCiv (100 μM) at 0 and 5 days of incubation (phosphate-buffered saline [PBS], 37 °C for 5 days). Aggregation of α-synuclein was determined using α- synuclein antibody. […]
In general terms: In western blotting, separated proteins are transferred to a membrane and probed.

Data set [2] can be described thus: Dissolution in dosing vehicle. Type of data set: physicochemical. Conditions: DMSO:PEG400:saline ratio of 5:70:25. Here is the method: In vivo rat pharmacokinetic studies were performed for intravenous and oral administration of PCiv as previously reported. Sprague-Dawley rats (8 weeks old, 260–280 g) were purchased from Orient Bio Inc. (Seongnam, Korea). Rats were maintained with free access to food and water under a 12:12 h light/dark cycle for 1 week. For pharmacokinetic studies, under anesthetic conditions (20 mg/kg tiletamine/zolazepam [Zoletil; Vibrac Laboratories, Carros, France] administered intramuscularly), the femoral vein and artery were surgically cannulated using polyethylene tubing (PE50; Clay Adams, Parsippany, NJ, USA) in fasted rats. Then, PCiv was administered intravenously and orally at a dose of 10 mg/kg (n = 4–5). The drug was dissolved in a vehicle (DMSO:PEG400:saline at a ratio of 5:70:25). Blood samples (approximately 100 μL) were collected at predetermined time points (0, 1, 5 (intravenous administration only), 15, 30, 60, 120, 180, 240, 360, and 480 min) after drug administration. […] The PCiv level was determined using a CapcellpakTM C18 5 μm column (250 × 1.5 mm, Shiseido Fine Chemical Co., Tokyo, Japan), as previously described. […] The tissue concentration levels were calculated as the PCiv amount (ng) per gram of organ weight.

Each structure is given as a SMILES string.

Consider `C/C=C(\C)C(=O)O[C@H]1[C@H](OC(C)=O)c2c(ccc3ccc(=O)oc23)OC1(C)C` (relative stereo) [PCiv, trans-4′-acetyl-3′-tigloylkhellactone], for which the “aggregation of recombinant α-synuclein into high molecular weight species” value in data set [1] is “robustly blocked”. The “dissolution in vehicle solution” value in data set [2] is reported as “well-dissolved”.
